Data published in paper PMC11431997, “Baicalin Inhibits FIPV Infection In Vitro by Modulating the PI3K-AKT Pathway and Apoptosis Pathway” (International Journal of Molecular Sciences, 2024).
Converted amounts (≈) assume the structure as drawn. “And” between values parts separate entries of the source, which are not always exact repeats. Equal values may be shown once.

Key:
FIPV (BJ-01) [1] = assay: Impact of the compound on FIPV replication (compound added after infection, CCK-8); type: cell-based, feline infectious peritonitis virus
Method: According to previous methods, CRFK cells were seeded in 96-well cell culture plates at a density of 1 × 10^4 cells/well and cultured at 37 °C in 5% CO2 until the cell density was greater than 90%. Then, the medium was discarded, and the cells were washed twice with PBS. FIPV was first added into 96-well cell culture plates at 100 μL/well then incubated at 37 °C and 5% CO2 for 1, 2, 4, 6, 8, 10, 12, and 14 h, respectively. After that, the viral solution was discarded and washed with PBS twice and then the compound was added at 100 μL/well and incubated at 37 °C and 5% CO2 (at the same time, a cell control group with only 100 μL of MM and a viral control group with only 100 μL of FIPV were added). There were 3 replicate wells for each compound and group. After the CPE of the viral control group reached more than 80%, the liquid in the culture plate was removed and washed twice with PBS. Afterwards, the IR of the compounds against the virus was computed according to the directions of the Cell Counting Kit-8.

FIPV (BJ-01) [2] = assay: Direct inactivation of FIPV (compound pre-mixed with virus, CCK-8); type: cell-based, feline infectious peritonitis virus
Method: According to previous methods, CRFK cells were seeded in 96-well cell culture plates at a density of 1 × 10^4 cells/well and cultured at 37 °C in 5% CO2 until the cell density was greater than 90%. Then, the medium was discarded, and the cells were washed twice with PBS. The compound was mixed with FIPV in the ratio of 1:1 and incubated at 37 °C and 5% CO2 for 30, 60, 90, 120, and 150 min, respectively; then, the mixture of different incubation durations were added into 96-well cell culture plates at 100 μL/well and incubated at 37 °C and 5% CO2, respectively (at the same time, a cell control group with only 100 μL of MM and a viral control group with only 100 μL of FIPV were added). There were 3 replicate wells for each compound and group. After the CPE of the viral control group reached more than 80%, the liquid in the culture plate was removed and washed twice with PBS. Afterwards, the IR of the compounds against the virus was computed according to the directions of the Cell Counting Kit-8.

FIPV (BJ-01) [3] = assay: Inhibitory effects of compounds on FIPV-infected cells (compound and FIPV added simultaneously, CCK-8); type: cell-based, feline infectious peritonitis virus
Method: According to previous methods, CRFK cells were seeded in 96-well cell culture plates at a density of 1 × 10^4 cells/well and cultured at 37 °C in 5% CO2 until the cell density was greater than 90%. After the cells were washed twice with PBS, 50 μL of test compound and 50 μL of FIPV were added to each well simultaneously (at the same time, a cell control group with only 100 μL of MM and a viral control group with only 100 μL of FIPV were added). There were 3 replicate wells for each compound and group. After 72 h of incubation at 37 °C and 5% CO2, the liquid in the plate was discarded, and the cells were washed twice with PBS. The MIR of the compounds to the virus was calculated according to the instructions of the Cell Counting Kit-8. Afterwards, the compounds with MIR > 50% were diluted to 8 concentrations with MM, and the above process was repeated. Then, the EC50 values of the compounds were calculated with GraphPad Prism 10.

[4] = test system: PI3K-AKT signaling pathway and apoptosis pathway; assay: Western blot of key proteins in FIPV-infected CRFK cells; type: cell-based, feline; details: treatment group vs FIPV group, p < 0.05
Method: Based on the results of the above experiments, the cell precipitates were collected according to the method in Section 4.6 and grouped as described in Section 4.7. After infection, the cells were collected at the appropriate time of infection, and the proteins were extracted from the samples according to the instructions of a total protein extraction kit (strong) (Solarbio, Beijing, China). Afterwards, the protein concentration of the extracted samples was determined separately using a BCA Protein Quantification Kit (Vazyme, Nanjing, China), and all sample proteins were diluted to the same concentration using PBS. The diluted protein samples were mixed with NuPAGE LDS Sample Buffer (4×) (Invitrogen, Waltham, MA, USA) at a ratio of 1:4 and heated at 70 °C for 10 min to denature the proteins. After that, the denatured proteins were added to 10 wells of 12% sodium dodecyl sulfate-polyacrylamide gel electrophoresis (SDS-PAGE) (Vazyme, Nanjing, China) at 20 μg/well, after which the total proteins were separated on NuPAGE MES SDS Running Buffer (Invitrogen, CA, USA). After separation, proteins were transferred from the gel onto 0.45 μm polyvinylidene fluoride (PVDF) membranes (Millipore, Billerica, MA, USA) using WB Transfer Buffer (Solarbio, Beijing, China). After that, the PVDF membranes were blocked with 5% skim milk (Solarbio, Beijing, China) at room temperature for 2 h. At the end of the closure, the membranes were washed with TBST (6 times, each time for 5 min, as described below); then. the primary antibodies were added and incubated at 4 °C overnight. The next day, the PVDF membranes were washed with TBST, the primary antibodies were removed, and the secondary antibodies were added and incubated at room temperature for 2 h (the antibody information and dilutions are shown in Section 4.1.4). At the end of the incubation, the PVDF membranes were washed with TBST, after which the protein bands were exposed and imaged using a SuperPico ECL Chemiluminescence Kit (Vazyme, Nanjing, China) and an Al680 imaging system (GE, Boston, MA, USA). The gray values of the WB bands were analyzed using ImageJ 1.54f, and the relative expression was calculated using GAPDH as an internal reference protein.

FIPV (BJ-01) [5] = assay: Impact of the compound on FIPV adsorption (cells pre-incubated with compound, CCK-8); type: cell-based, feline infectious peritonitis virus; details: cells co-cultured with baicalin before FIPV, all times
Method: According to previous methods, CRFK cells were seeded in 96-well cell culture plates at a density of 1 × 10^4 cells/well and cultured at 37 °C in 5% CO2 until the cell density was greater than 90%. Then, the medium was discarded, and the cells were washed twice with PBS. The compound was first added into 96-well cell culture plates at 100 μL/well and then incubated at 37 °C and 5% CO2 for […], 1, 2, 4, and 6 h, respectively, then incubated at 4 °C for 1 h. After that, the liquid in the plates was removed and washed with PBS twice. Then, added FIPV into cells at 100 μL/well and incubated at 37 °C and 5% CO2 (at the same time, a cell control group with only 100 μL of MM and a viral control group with only 100 μL of FIPV were added). There were 3 replicate wells for each compound and group. After the CPE of the viral control group reached more than 80%, the liquid in the culture plate was removed and washed twice with PBS. Afterwards, the IR of the compounds against the virus was computed according to the directions of the Cell Counting Kit-8.

**Q.** What does the source list for O=C(O)[C@H]1O[C@@H](Oc2cc3oc(-c4ccccc4)cc(=O)c3c(O)c2O)[C@H](O)[C@@H](O)[C@@H]1O [Baicalin]?
**A.** inhibition rate on FIPV (replication blocking) (FIPV (BJ-01) [1]; baicalin added after 10 h of infection): significantly reduced; inhibition rate on FIPV (replication blocking) (FIPV (BJ-01) [1]; baicalin added within 8 h of FIPV infection of CRFK cells): more than 50%; inhibition rate on FIPV (direct inactivation) (FIPV (BJ-01) [2]; 150 min of co-culture of baicalin with FIPV): ~100%; inhibition rate on FIPV (direct inactivation) (FIPV (BJ-01) [2]; baicalin co-cultured with FIPV 30-150 min before addition to CRFK cells, all times): more than 50%; EC50 (FIPV (BJ-01) [3]; Alphacoronavirus 1, FIPV in CRFK cells, gradient dilution, 72 h, CCK-8): 20.8 µg/mL (≈ 46.6 µM); SI (CC50/EC50) (FIPV (BJ-01) [3]; FIPV, CRFK cells): > 3 and 5.5; Bax relative expression (WB, GAPDH reference) [4]: significantly downregulated; Bcl-2/Bax relative expression (WB) [4]: significantly upregulated; Bcl-2 relative expression (WB, GAPDH reference) [4]: significantly upregulated; EGFR relative expression (WB, GAPDH reference) [4]: significantly upregulated; PI3K relative expression (WB, GAPDH reference) [4]: significantly upregulated; cleaved caspase 9 relative expression (WB, GAPDH reference) [4]: significantly downregulated; inhibition rate on FIPV infection (adsorption) (FIPV (BJ-01) [5]): ≤ 50%
